Measured values reported in US8748415B2 (priority 2011, dated 2014).

Tested on: recombinant NL4-3 virus (Renilla luciferase in nef, Gag P373S)
Experiment: HIV cell culture assay (luciferase activity in MT-2 cells infected with NLRluc recombinant virus)
Type: cell-based
How it was run: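 Activity was read as luciferase output (Dual Luciferase reagents premixed with lysis solution) after 4–5 days of infection in serially diluted inhibitor. Host cells were MT-2 in 10% FBS RPMI. The reporter virus came from transfected 293T cells and was titered on MT-2.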

[1] = NL43, MT-2 cells infected 4-5 days with NLRluc recombinant virus, class symbol

## C=C(C)[C@@H]1CC[C@]2(CNCCN3CCNCC3)CC[C@]3(C)[C@H](CC[C@@H]4[C@@]5(C)CC=C(c6ccc(C(=O)O)cc6)C(C)(C)[C@@H]5CC[C@]43C)[C@@H]12 [Example 8, 4-((1R,3aS,5aR,5bR,7aR,11aS,11bR,13aR,13bR)-5a,5b,8,8,11a-pentamethyl-3a-((2-(piperazin-1-yl)ethylamino)methyl)-1-(prop-1-en-2-yl)-2,3,3a,4,5,5a,5b,6,7,7a,8,11,11a,11b,12,13,13a,13b-octadecahydro-1H-cyclopenta[a]chrysen-9-yl)benzoic acid]
[1]
  EC50: < 100 nM

## C=C(C)[C@@H]1CC[C@]2(CNCCN3CCSCC3)CC[C@]3(C)[C@H](CC[C@@H]4[C@@]5(C)CC=C(c6ccc(C(=O)O)cc6)C(C)(C)[C@@H]5CC[C@]43C)[C@@H]12 [Example 86]
[1]
  EC50: < 100 nM

## C=C(C)[C@@H]1CC[C@]2(CNCCCN3CCCC3)CC[C@]3(C)[C@H](CC[C@@H]4[C@@]5(C)CC=C(c6ccc(C(=O)O)cc6)C(C)(C)[C@@H]5CC[C@]43C)[C@@H]12 [Example 68, 4-((1R,3aS,5aR,5bR,7aR,11aS,11bR,13aR,13bR)-5a,5b,8,8,11a-pentamethyl-1-(prop-1-en-2-yl)-3a-((3-(pyrrolidin-1-yl)propylamino)methyl)-2,3,3a,4,5,5a,5b,6,7,7a,8,11,11a,11b,12,13,13a,13b-octadecahydro-1H-cyclopenta[a]chrysen-9-yl)benzoic acid]
[1]
  EC50: < 100 nM

## C=C(C)[C@@H]1CC[C@]2(CNC(=O)OCCCN3CCS(=O)(=O)CC3)CC[C@]3(C)[C@H](CC[C@@H]4[C@@]5(C)CC=C(c6ccc(C(=O)O)cc6)C(C)(C)[C@@H]5CC[C@]43C)[C@@H]12 [Example 164, 4-((1R,3aS,5aR,5bR,7aR,11aS,11bR,13aR,13bR)-3a-((((3-(1,1-dioxido-4-thiomorpholinyl)propoxy)carbonyl)amino)methyl)-1-isopropenyl-5a,5b,8,8,11a-pentamethyl-2,3,3a,4,5,5a,5b,6,7,7a,8,11,11a,11b,12,13,13a,13b-octadecahydro-1H-cyclopenta[a]chrysen-9-yl)benzoic acid]
[1]
  EC50: < 100 nM

## C=C(C)[C@@H]1CC[C@]2(CNC(=O)C(F)(F)C(=O)O)CC[C@]3(C)[C@H](CC[C@@H]4[C@@]5(C)CC=C(c6ccc(C(=O)O)cc6)C(C)(C)[C@@H]5CC[C@]43C)[C@@H]12 [Example 153, 4-((1R,3aS,5aR,5bR,7aR,11aS,11bR,13aR,13bR)-3a-((2-carboxy-2,2-difluoroacetamido)methyl)-5a,5b,8,8,11a-pentamethyl-1-(prop-1-en-2-yl)-2,3,3a,4,5,5a,5b,6,7,7a,8,11,11a,11b,12,13,13a,13b-octadecahydro-1H-cyclopenta[a]chrysen-9-yl)benzoic acid]
[1]
  EC50: > 100 nM

## C=C(C)[C@@H]1CC[C@]2(CNCCN(C)CCS(C)(=O)=O)CC[C@]3(C)[C@H](CC[C@@H]4[C@@]5(C)CC=C(c6ccc(C(=O)O)cc6)C(C)(C)[C@@H]5CC[C@]43C)[C@@H]12 [Example 85, 4-((1R,3aS,5aR,5bR,7aR,11aS,11bR,13aR,13bR)-5a,5b,8,8,11a-pentamethyl-3a-((2-(methyl(2-(methylsulfonyl)ethyl)amino)ethylamino)methyl)-1-(prop-1-en-2-yl)-2,3,3a,4,5,5a,5b,6,7,7a,8,11,11a,11b,12,13,13a,13b-octadecahydro-1H-cyclopenta[a]chrysen-9-yl)benzoic acid]
[1]
  EC50: < 100 nM

## C=C(C)[C@@H]1CC[C@]2(CNC(C)C)CC[C@]3(C)[C@H](CC[C@@H]4[C@@]5(C)CC=C(c6ccc(C(=O)O)cc6)C(C)(C)[C@@H]5CC[C@]43C)[C@@H]12 [Example 175, 4-((1R,3aS,5aR,5bR,7aR,11aS,11bR,13aR,13bR)-3a-((isopropylamino)methyl)-5a,5b,8,8,11a-pentamethyl-1-(prop-1-en-2-yl)-2,3,3a,4,5,5a,5b,6,7,7a,8,11,11a,11b,12,13,13a,13b-octadecahydro-1H-cyclopenta[a]chrysen-9-yl)benzoic acid]
[1]
  EC50: < 100 nM

## C=C(C)[C@@H]1CC[C@]2(CN(C)C)CC[C@]3(C)[C@H](CC[C@@H]4[C@@]5(C)CC=C(c6ccc(C(=O)O)cc6)C(C)(C)[C@@H]5CC[C@]43C)[C@@H]12 [Example 83, 4-((1R,3aS,5aR,5bR,7aR,11aS,11bR,13aR,13bR)-3a-((dimethylamino)methyl)-5a,5b,8,8,11a-pentamethyl-1-(prop-1-en-2-yl)-2,3,3a,4,5,5a,5b,6,7,7a,8,11,11a,11b,12,13,13a,13b-octadecahydro-1H-cyclopenta[a]chrysen-9-yl)benzoic acid]
[1]
  EC50: < 100 nM

## C=C(C)[C@@H]1CC[C@]2(CNCCC(=O)N3CCC4(CCN(C)C4=O)CC3)CC[C@]3(C)[C@H](CC[C@@H]4[C@@]5(C)CC=C(c6ccc(C(=O)O)cc6)C(C)(C)[C@@H]5CC[C@]43C)[C@@H]12 [Example 123, 4-((1R,3aS,5aR,5bR,7aR,11aS,11bR,13aR,13bR)-5a,5b,8,8,11a-pentamethyl-3a-((3-(2-methyl-1-oxo-2,8-diazaspiro[4.5]decan-8-yl)-3-oxopropylamino)methyl)-1-(prop-1-en-2-yl)-2,3,3a,4,5,5a,5b,6,7,7a,8,11,11a,11b,12,13,13a,13b-octadecahydro-1H-cyclopenta[a]chrysen-9-yl)benzoic acid]
[1]
  EC50: < 100 nM

## C=C(C)[C@@H]1CC[C@]2(CNCC(=O)N3CCCC3)CC[C@]3(C)[C@H](CC[C@@H]4[C@@]5(C)CC=C(c6ccc(C(=O)O)cc6)C(C)(C)[C@@H]5CC[C@]43C)[C@@H]12 [Example 109, 4-((1R,3aS,5aR,5bR,7aR,11aS,11bR,13aR,13bR)-5a,5b,8,8,11a-pentamethyl-3a-((2-oxo-2-(pyrrolidin-1-yl)ethylamino)methyl)-1-(prop-1-en-2-yl)-2,3,3a,4,5,5a,5b,6,7,7a,8,11,11a,11b,12,13,13a,13b-octadecahydro-1H-cyclopenta[a]chrysen-9-yl)benzoic acid]
[1]
  EC50: < 100 nM

## C=C(C)[C@@H]1CC[C@]2(CNCCO)CC[C@]3(C)[C@H](CC[C@@H]4[C@@]5(C)CC=C(c6ccc(C(=O)O)cc6)C(C)(C)[C@@H]5CC[C@]43C)[C@@H]12 [Example 178, 4-((1R,3aS,5aR,5bR,7aR,11aS,11bR,13aR,13bR)-3a-((2-hydroxyethylamino)methyl)-5a,5b,8,8,11a-pentamethyl-1-(prop-1-en-2-yl)-2,3,3a,4,5,5a,5b,6,7,7a,8,11,11a,11b,12,13,13a,13b-octadecahydro-1H-cyclopenta[a]chrysen-9-yl)benzoic acid]
[1]
  EC50: < 100 nM

## C=C(C)[C@@H]1CC[C@]2(CN3CC3)CC[C@]3(C)[C@H](CC[C@@H]4[C@@]5(C)CC=C(c6ccc(C(=O)O)cc6)C(C)(C)[C@@H]5CC[C@]43C)[C@@H]12 [Example 177, 4-((1R,3aS,5aR,5bR,7aR,11aS,11bR,13aR,13bR)-3a-(aziridin-1-ylmethyl)-5a,5b,8,8,11a-pentamethyl-1-(prop-1-en-2-yl)-2,3,3a,4,5,5a,5b,6,7,7a,8,11,11a,11b,12,13,13a,13b-octadecahydro-1H-cyclopenta[a]chrysen-9-yl)benzoic acid]
NL43
  EC50: < 100 nM

## C=C(C)[C@@H]1CC[C@]2(CNCCN(CC)CC)CC[C@]3(C)[C@H](CC[C@@H]4[C@@]5(C)CC=C(c6ccc(C(=O)O)cc6)C(C)(C)[C@@H]5CC[C@]43C)[C@@H]12 [Example 21, 4-((1R,3aS,5aR,5bR,7aR,11aS,11bR,13aR,13bR)-3a-((2-(diethylamino)ethylamino)methyl)-5a,5b,8,8,11a-pentamethyl-1-(prop-1-en-2-yl)-2,3,3a,4,5,5a,5b,6,7,7a,8,11,11a,11b,12,13,13a,13b-octadecahydro-1H-cyclopenta[a]chrysen-9-yl)benzoic acid]
[1]
  EC50: < 100 nM

## C=C(C)[C@@H]1CC[C@]2(CNCC(=O)N3CCC(C(=O)OCC)CC3)CC[C@]3(C)[C@H](CC[C@@H]4[C@@]5(C)CC=C(c6ccc(C(=O)O)cc6)C(C)(C)[C@@H]5CC[C@]43C)[C@@H]12 [Example 111, 4-((1R,3aS,5aR,5bR,7aR,11aS,11bR,13aR,13bR)-3a-((2-(4-(ethoxycarbonyl)piperidin-1-yl)-2-oxoethylamino)methyl)-5a,5b,8,8,11a-pentamethyl-1-(prop-1-en-2-yl)-2,3,3a,4,5,5a,5b,6,7,7a,8,11,11a,11b,12,13,13a,13b-octadecahydro-1H-cyclopenta[a]chrysen-9-yl)benzoic acid]
[1]
  EC50: < 100 nM

## C=C(C)[C@@H]1CC[C@]2(CNCCCN3CCCC3=O)CC[C@]3(C)[C@H](CC[C@@H]4[C@@]5(C)CC=C(c6ccc(C(=O)O)cc6)C(C)(C)[C@@H]5CC[C@]43C)[C@@H]12 [Example 58, 4-((1R,3aS,5aR,5bR,7aR,11aS,11bR,13aR,13bR)-5a,5b,8,8,11a-pentamethyl-3a-((3-(2-oxopyrrolidin-1-yl)propylamino)methyl)-1-(prop-1-en-2-yl)-2,3,3a,4,5,5a,5b,6,7,7a,8,11,11a,11b,12,13,13a,13b-octadecahydro-1H-cyclopenta[a]chrysen-9-yl)benzoic acid]
[1]
  EC50: < 100 nM

## C=C(C)[C@@H]1CC[C@]2(CNCCN3CCOCC3)CC[C@]3(C)[C@H](CC[C@@H]4[C@@]5(C)CC=C(c6ccc(C(=O)O)cc6)C(C)(C)[C@@H]5CC[C@]43C)[C@@H]12 [Example 63, 4-((1R,3aS,5aR,5bR,7aR,11aS,11bR,13aR,13bR)-5a,5b,8,8,11a-pentamethyl-3a-((2-morpholinoethylamino)methyl)-1-(prop-1-en-2-yl)-2,3,3a,4,5,5a,5b,6,7,7a,8,11,11a,11b,12,13,13a,13b-octadecahydro-1H-cyclopenta[a]chrysen-9-yl)benzoic acid]
[1]
  EC50: < 100 nM
